Experimental findings from patent publication US20260041622A1, “Reduction of Signs of Skin Aging” (CarboCode S.A., priority 2022, published 2026) are described below.

Test [1] has as its system Reconstructed Human Epidermis (RHE). The test is described as follows: Reconstructed Human Epidermis (RHE) treated topically with ceramide in base emulsion, LC-MS/MS proteomics. The class given is cell-based. As to conditions: application on keratinocytes. Here is the method: Material and methods: Reconstructed Human Epidermis (RHE) cell culture is used, as this system mimics the in vivo 3D structure of epidermal tissue as well as the conditions and processes that occur in normal epidermis. RHE are cultured using the medium provided by the manufacturer until analysis. RHE are maintained in survival for 24 hours, before RHE are topically treated with the respective ceramide in a base emulsion for 24 h. 3 RHE are treated with base emulsion alone and 3 more remained untreated as a control batch (Ctrl). RHE are incubated under classical cell culture conditions (37° C., 5% CO2).
Sample preparation and LC-MS/MS analysis: Protein is extracted using the Pierce Total Protein Extraction Kit (Thermo Fisher) according to manufacturer's recommendations. The protein is mixed with Laemmli buffer and heated to 37° C. for 30 min. Protein concentration is determined by the BCA method and standardized for all samples. The samples are separated by SDS-PAGE and digested with trypsin overnight. The peptides generated are acidified and separated. The mass spectra are queried using Proteome Discoverer (version 2.5). The resulting MS/MS data are queried against the Homo sapiens proteome UP000005640 (20371 reviewed entries). Results are filtered based on unique peptides >2, and global peptide scores. Analyses are performed using Proteome Discoverer 2.5 to check for overall sample quality.
Bioinformatics and statistical analysis: Proteomic analysis returned a mean total of 34961 high-quality peptides corresponding to a mean 2422 identifiable and quantifiable RHE proteins among conditions. A summary of proteins differentially expressed within conditions is provided in Annex 3. Proteins with a p-value 0.05 in at least one of the concentrations tested for a lipid are considered significant and used for pairwise comparisons. Relevant proteins are classified by their biological processes and associated pathways using the publicly available gene ontology (GO) database provided by the Gene Ontology Consortium and Reactome. Interactome analysis was performed using Cytoscape combined with STRING.

The test system of a further test is Laminin 5. The test is described as follows: Laminin-5 immunostaining along the dermal-epidermal junction of living human skin explants. The class given is cell-based. The note with it: 0.1% CNS18 in basic emulsion, topical, 4 days of treatment. Here is the method: (§1) Human skin explants of an average diameter of 12 mm (±1 mm) were prepared on an abdoplasty coming from a person with a phototype II according to Fitzpatrick skin colour classification. The explants were kept in survival in BEM culture medium (BIO-EC's Explants Medium) at 37° C. in a humid, 5%—CO2 atmosphere.
(§2) The tested products E and P were applied topically at a rate of […] per 1 cm^2 explant (≈2 mg/cm^2), and spread using a small spatula on day 0 (D0), D2, D4 and D6. […] The culture medium was half renewed (l ml per well) on D2, D4 and D6.
(§3) On D0, the 3 explants from the batch TO were collected and cut into two parts. Half was fixed in buffered formalin solution, […] was frozen at −80° C. On D4 and D8, 3 explants from the concerned batches were collected and treated in the same way as in D0.
After fixation for 24 hours in buffered formalin, the samples were dehydrated and impregnated in paraffin using a Leica PEARL dehydration automat. The samples were embedded using a Leica EG 1160 embedding station. 5-μm-thick sections were made using a Leica RM 2125 Minot-type microtome, and the sections were mounted on Superfrost® histological glass slides. The frozen samples were cut into 7-μm-thick sections using a Leica CM 3050 cryostat. Sections were then mounted on Superfrost® plus silanized glass slides. […]
The immunostaining was assessed by microscopical observation.

The test system of another test is Collagen IV. The test is described as follows: Collagen IV immunostaining along the dermal-epidermal junction of living human skin explants. The class given is cell-based. The note with it: 0.1% CNS18 in basic emulsion, topical, 8 days of treatment. Here is the method: as §1, §2, §3
After fixation for 24 hours in buffered formalin, the samples were dehydrated and impregnated in paraffin using a Leica PEARL dehydration automat. The samples were embedded using a Leica EG 1160 embedding station. […]
Collagen IV immunostaining was performed on frozen skin sections with a monoclonal anti-collagen IV antibody (Dako, ref M0785, clone CIV 22) diluted at 1:25 in PBS-BSA 0.3%-Tween 20 at 0.05% and incubated for 1 h at room temperature. […] The immunostaining was assessed by microscopical observation.

Another test relates to IL-1α. The test is described as follows: IL-1α ELISA quantification in BEM culture medium of skin explants. The class given is cell-based, human. As to conditions: 0.05% GlcCNS18 in basic emulsion, topical. As to the method:
Human skin explants of an average diameter of 11 mm (+1 mm) were prepared on an abdoplasty coming from a person with a II phototype according to Fitzpatrick skin colour classification. The explants were kept in survival in BEM culture medium (BIO-EC's Explants Medium) at 37° C. in a humid, 5%—CO2 atmosphere.
The tested products E and P were applied topically at a rate of 2 μL per 1 cm^2 explant (2 mg/cm^2), and spread using a small spatula on day 0 (D0), D1, D2 and D5. […] The culture medium was half renewed (1 ml per well) on D1, D2 and completely renewed (2 mL per well) on D5.
On D0, the 3 explants from the batch TO were collected and cut into two parts. One part was fixed in buffered formalin solution, and the other part was frozen at −80° C. for histological analysis. On D6, 4 explants from the concerned batches were collected and treated in the same way than in D0. The culture medium BEM of all batches was collected on D6 (2 mL per explant) and stored at −20° C. for dosages.
IL-1α dosage was performed with human IL-1α ELISA kit (Cayman, ref 583301). According to provider's guidelines, the culture medium and the IL-1α standard were incubated with acetylcholinesterase (AChE) Fab′ conjugate binding IL-1α in wells which contain coated IL-1α antibody, overnight at 4° C. […] Absorbance at 412 nm was measured using the M200Pro Tecan microplate reader and Magellan7 software. […]
(In general: ELISA stands for enzyme-linked immunosorbent assay.)

[2] abbreviates: 0.01%, 0.03%, 0.15% ceramide in vehicle vs vehicle, 24 h.

With `CCCCCCCCCCCCCCCCCC(=O)NC(CO)C(O)CCCCCCCCCCCCCCC` (centres unmarked) [Cer NG], in test [1], the “regulation of ATP synthase subunit delta (mitochondrial)” value is listed as “upregulation”, the “regulation of ATP synthase subunit g (mitochondrial)” value (“regulation of ATP synthase subunit g” below) was “upregulation”, the “regulation of NAD-dependent protein deacetylase sirtuin-2 (sirtuin-2)” value (“regulation … (sirtuin-2)” below) is “up-regulation” and the “regulation of cytochrome c oxidase subunit 6C” value was “upregulation”. For the same compound, in test [1], the “regulation of phosphomevalonate kinase” value is on record as “upregulation” and the “regulation of small proline-rich protein 2D” value is “up-regulation”. Besides, in test [1] (setting [2]), the “regulation of ECM1 (Extracellular Matrix Protein 1)” value (from here on “regulation of ECM1”) is “up-regulation” and the “regulation of Integrin alpha-3” value was “up-regulation”.

Regarding `CCCCCCCCCCCCCCCCCC(=O)NC(CO)C(O)C(O)CCCCCCCCCCCCCC` (centres unmarked) [Cer NP], the “regulation of Keratin-17” value in test [1] was “up-regulation”. Further, in test [1] (setting [2]), the “regulation of ECM1” value was “up-regulation” and the “regulation of Syndecan-1” value is given as “up-regulation”.

For `CCCCCCCCCCCCCC=CC(O)C(CO)NC(=O)CCCCCCCCCCCCCCCCC` (centres unmarked) [Cer NS], in test [1], the “regulation of Kallikrein-5” value is “up-regulation”, the “regulation of LC3A (microtubule-associated proteins 1A/1B light chain 3A)” value was “up-regulation”, the “regulation … (sirtuin-2)” value is on record as “up-regulation” and the “regulation of cornifin-B” value is on record as “up-regulation”. In test [1], the “regulation of protein S100-A2” value is on record as “down-regulation” and the “regulation of protein S100-A9” value is “down-regulation”. For the same compound, in test [1] (setting [2]), the “regulation of ECM1” value is on record as “up-regulation”, the “regulation of Laminin-5” value is on record as “up-regulation”, the “regulation of Plakophilin-2” value is “up-regulation” and the “regulation of Syndecan-1” value is reported as “up-regulation”. Moreover, the “increase in expression of laminin-5” value in the test with Laminin 5 was determined as 26%. The “increase in expression of collagen IV” value in the test on Collagen IV is 41%.

For the compound `CCCCCCCCCCCCCC=CC(O)C(COC1OC(CO)C(O)C(O)C1O)NC(=O)CCCCCCCCCCCCCCCCC` (centres unmarked) [GlcCer], in test [1], the “regulation of ATP synthase subunit delta (mitochondrial)” value is “up-regulation”, the “regulation of ATP synthase subunit g” value is “up-regulation”, the “regulation of ATP-dependent zinc metalloprotease YME1L1” value is recorded as “up-regulation” and the “regulation of LC3A (microtubule-associated proteins 1A/1B light chain 3A)” value is recorded as “up-regulation”. Moreover, in test [1], the “regulation of NAD-dependent malic enzyme (mitochondrial)” value was “up-regulation”, the “regulation of NADH dehydrogenase [ubiquinone]1 alpha subcomplex subunit 8” value was “up-regulation”, the “regulation of NADH dehydrogenase [ubiquinone] iron-sulfur protein 2 (mitochondrial)” value is “up-regulation” and the “regulation of cytochrome c oxidase subunit 6C” value is on record as “up-regulation”. In test [1], the “regulation of interleukin-1-alpha (IL-1α)” value is listed as “down-regulation”, the “regulation of nuclear factor NF-kappa-B p105 subunit” value was “down-regulation”, the “regulation of phosphomevalonate kinase” value is “up-regulation” and the “regulation of protein S100-A2” value was “down-regulation”. Moreover, the “regulation of protein S100-A9” value in test [1] was “down-regulation”. Also, the IL-1α release result in the test with IL-1α (day 6) is “increased”. Also, the IL-1α release entry in the test with IL-1α (day 6, listed as GlcCNS) is recorded as “significant increase”.

As to `CCCCCCCCCCCCCC=CC(O)C(COC1OC(CO)C(OC2OC(CO)C(O)C(O)C2O)C(O)C1O)NC(=O)CCCCCCCCCCCCCCCCC` (centres unmarked) [LacCer], in test [1], the “regulation of ATP synthase subunit delta (mitochondrial)” value is “upregulation”, the “regulation of ATP synthase subunit g” value is recorded as “upregulation”, the “regulation of ATP-dependent zinc metalloprotease YME1L1” value is listed as “upregulation” and the “regulation of Glutathione S-transferase Mu 2” value is “up-regulation”. In addition, in test [1], the “regulation of LC3B (microtubule-associated proteins 1A/1B light chain 3B)” value is on record as “up-regulation”, the “regulation of NAD-dependent malic enzyme (mitochondrial)” value is given as “upregulation”, the “regulation … (sirtuin-2)” value is given as “up-regulation” and the regulation of cystathione-gamma-lyase result is listed as “up-regulation”. Also, in test [1], the “regulation of cytochrome b-cl complex subunit 9” value is recorded as “upregulation”, the “regulation of cytochrome c oxidase subunit 2” value is “upregulation”, the “regulation of cytochrome c oxidase subunit 6C” value is “upregulation” and the “regulation of cytochrome c oxidase subunit NDUFA4” value was “upregulation”. Further, in test [1], the “regulation of phosphomevalonate kinase” value was “upregulation”. Also, in test [1] (setting [2]), the “regulation of ECM1” value is recorded as “up-regulation” and the “regulation of Syndecan-1” value was “up-regulation”.
